Results: patent US12247914B2, “Virus sensing in exhaled breath by infrared spectroscopy” (Vox Biomedical LLC, priority 2017, dated 2025)
Read-outs that look alike come from different tables or passages of the source.

Legend:
subjects [1] = conditions: cited from earlier work
[2] = cited from earlier work
[3] = cited from earlier work; remark: listed apart in the source
[4] = Blood THC concentration versus time after smoking; format: in vivo; conditions: about an hour after smoking cessation
Experimental: (§1) The high lipid solubility of cannabinoids results in their persisting in the body for long periods of time. Even after a single administration of THC, detectable levels of THC can be found in the body for weeks or longer. […] There are three accepted laboratory methods for detecting THC in individuals that have smoked or ingested marijuana: (1) urine testing, for which passive inhalation up to 22 minutes for infrequent users can be detected for 7-10 days after inhalation, with longer periods for heavy users, (2) hair testing, with THC being detectible for up to 90 days after inhalation, and (3) blood and oral fluid testing, for which THC can be detected for 2-24 hours after use in most cases, but for up to 2 weeks in some heavy users. A detailed investigation of the relationship between time after marijuana smoking and relative subject impairment provides an estimate of the relative degree of impairment (defined under Standardized Field Sobriety Tests) as a function of time after smoking various smoke concentrations of THC is shown in Table 1.

subjects [5] = experiment: Percent of impaired subjects by Standardized Field Sobriety Tests after smoking; format: in vivo; conditions: about an hour after smoking cessation
Experimental: as §1

[6] = dose 1.74% THC smoked, Time 1 (0-5 mins) after smoking
[7] = dose 1.74% THC smoked, Time 2 (50-55 mins) after smoking
[8] = dose 1.74% THC smoked, Time 3 (100-105 mins) after smoking
[9] = dose 2.93% THC smoked, Time 1 (0-5 mins) after smoking
[10] = dose 2.93% THC smoked, Time 2 (50-55 mins) after smoking
[11] = dose 2.93% THC smoked, Time 3 (100-105 mins) after smoking

CCCCCc1cc(O)c2c(c1)OC(C)(C)[C@@H]1CCC(C)=C[C@@H]21 [THC, delta-9-tetrahydrocannabinol]
% impaired (subjects [1]; [6]): 23% | % impaired (subjects [1]; [7]): 23% | % impaired (subjects [1]; [8]): 15% | % impaired (subjects [1]; [9]): 46% | % impaired (subjects [1]; [10]): 41% | % impaired (subjects [1]; [11]): 28% | time THC can be detected after use, blood and oral fluid testing ([2]; most cases): 2 to 24 h | time THC can be detected after use, blood and oral fluid testing ([2]; some heavy users): up to 2 weeks | time THC is detectible after inhalation, hair testing ([2]; hair): up to 90 days | time THC can be detected after inhalation, urine testing ([2]; urine, infrequent users, passive inhalation up to 22 minutes): 7 to 10 days | Blood THC [3, 6]: 55.5 ng/mL | Blood THC [3, 7]: 6.8 ng/mL | Blood THC [3, 8]: 3.7 ng/mL | Blood THC [3, 9]: 70.6 ng/mL | Blood THC [3, 10]: 6.2 ng/mL | Blood THC [3, 11]: 3.2 ng/mL | blood content of THC relative to its initial value [4]: ~10% | relative degree of impairment relative to its initial value (subjects [5]): about half
